Experimental findings from publication PMC6993756, “Novel Anticancer Fused Pyrazole Derivatives as EGFR and VEGFR-2 Dual TK Inhibitors” (Frontiers in Chemistry, 2020) are described below.

Like-named read-outs stand apart in the source and are kept apart here.

For one series, the target named is EGFR (Homo sapiens, UniProt P00533). The series is described as follows: EGFR kinase inhibitory assay (BPS Bioscience EGFR kinase assay kit).
The target in the next series is VEGFR-2 (Homo sapiens, UniProt P35968). In words: VEGFR-2 kinase inhibitory assay (HTScan VEGF Receptor 2 kinase assay kit).
In series [1] the test system is HEPG2 human cancer cell line. The series is described as follows: MTT in vitro anticancer activity against HEPG2 cell line. The settings on record: for IC50: Homo sapiens, read-out: IC50 HEPG2; for fold higher activity than erlotinib, HEPG2: versus erlotinib (10.6 μM). In kind it is cell-based.
Experimental: The MTT method of monitoring in vitro cytotoxicity was used with multiwell plates. The stock concentration of the entire synthesized compounds in DMSO was 10 mM, and this was used to prepare the working dilution. The final DMSO concentration used in the experiments was ≤ 0.5% as the working concentration. Human liver cancer cell lines (HepG2) were cultured according to the manufacturer's instructions. […] The cell viability was determined in each experiment using MTT (3-(4, 5-dimethylthiazol-2-yl)-2, 5-diphenyltetrazolium bromide) colorimetric assay. The optical density was measured with a microplate reader at 540 nm. The experiment was conducted in triplicate. Data were calculated as percent of cell viability.
Where [2] appears, read: HepG2, MTT, 24 h treatment, mean of three experiments.

Sequence of EGFR (P00533 25-1210): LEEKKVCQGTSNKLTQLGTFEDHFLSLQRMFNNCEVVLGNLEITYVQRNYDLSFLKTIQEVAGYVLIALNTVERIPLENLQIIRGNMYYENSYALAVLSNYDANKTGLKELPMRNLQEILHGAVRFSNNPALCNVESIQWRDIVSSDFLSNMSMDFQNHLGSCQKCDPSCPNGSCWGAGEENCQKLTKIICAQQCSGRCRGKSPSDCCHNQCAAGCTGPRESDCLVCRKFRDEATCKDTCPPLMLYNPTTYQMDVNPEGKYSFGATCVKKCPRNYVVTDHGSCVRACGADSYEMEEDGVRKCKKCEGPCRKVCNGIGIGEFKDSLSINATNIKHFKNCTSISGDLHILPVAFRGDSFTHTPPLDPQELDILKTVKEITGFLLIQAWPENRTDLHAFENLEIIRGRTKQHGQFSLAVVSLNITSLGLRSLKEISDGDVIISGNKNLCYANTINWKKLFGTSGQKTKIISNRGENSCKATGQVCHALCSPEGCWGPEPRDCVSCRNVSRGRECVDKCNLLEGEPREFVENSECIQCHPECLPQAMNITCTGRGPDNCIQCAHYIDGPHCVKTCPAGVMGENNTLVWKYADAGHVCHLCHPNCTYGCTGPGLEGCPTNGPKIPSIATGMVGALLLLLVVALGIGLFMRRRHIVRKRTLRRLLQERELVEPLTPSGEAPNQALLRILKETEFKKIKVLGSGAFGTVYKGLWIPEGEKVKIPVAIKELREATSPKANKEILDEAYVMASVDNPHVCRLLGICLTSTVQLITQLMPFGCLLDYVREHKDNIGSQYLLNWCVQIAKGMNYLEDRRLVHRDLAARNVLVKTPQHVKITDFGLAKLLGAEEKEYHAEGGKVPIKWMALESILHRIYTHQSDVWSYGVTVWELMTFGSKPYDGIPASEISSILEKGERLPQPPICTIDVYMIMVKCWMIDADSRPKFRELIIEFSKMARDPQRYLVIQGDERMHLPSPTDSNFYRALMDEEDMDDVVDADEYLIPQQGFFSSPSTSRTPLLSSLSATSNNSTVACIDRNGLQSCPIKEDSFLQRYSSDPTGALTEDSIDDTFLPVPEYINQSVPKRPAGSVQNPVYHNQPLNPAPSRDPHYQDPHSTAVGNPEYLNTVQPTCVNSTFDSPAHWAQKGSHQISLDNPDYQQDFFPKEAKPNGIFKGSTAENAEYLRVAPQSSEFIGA
Sequence of VEGFR-2 (P35968 20-1356): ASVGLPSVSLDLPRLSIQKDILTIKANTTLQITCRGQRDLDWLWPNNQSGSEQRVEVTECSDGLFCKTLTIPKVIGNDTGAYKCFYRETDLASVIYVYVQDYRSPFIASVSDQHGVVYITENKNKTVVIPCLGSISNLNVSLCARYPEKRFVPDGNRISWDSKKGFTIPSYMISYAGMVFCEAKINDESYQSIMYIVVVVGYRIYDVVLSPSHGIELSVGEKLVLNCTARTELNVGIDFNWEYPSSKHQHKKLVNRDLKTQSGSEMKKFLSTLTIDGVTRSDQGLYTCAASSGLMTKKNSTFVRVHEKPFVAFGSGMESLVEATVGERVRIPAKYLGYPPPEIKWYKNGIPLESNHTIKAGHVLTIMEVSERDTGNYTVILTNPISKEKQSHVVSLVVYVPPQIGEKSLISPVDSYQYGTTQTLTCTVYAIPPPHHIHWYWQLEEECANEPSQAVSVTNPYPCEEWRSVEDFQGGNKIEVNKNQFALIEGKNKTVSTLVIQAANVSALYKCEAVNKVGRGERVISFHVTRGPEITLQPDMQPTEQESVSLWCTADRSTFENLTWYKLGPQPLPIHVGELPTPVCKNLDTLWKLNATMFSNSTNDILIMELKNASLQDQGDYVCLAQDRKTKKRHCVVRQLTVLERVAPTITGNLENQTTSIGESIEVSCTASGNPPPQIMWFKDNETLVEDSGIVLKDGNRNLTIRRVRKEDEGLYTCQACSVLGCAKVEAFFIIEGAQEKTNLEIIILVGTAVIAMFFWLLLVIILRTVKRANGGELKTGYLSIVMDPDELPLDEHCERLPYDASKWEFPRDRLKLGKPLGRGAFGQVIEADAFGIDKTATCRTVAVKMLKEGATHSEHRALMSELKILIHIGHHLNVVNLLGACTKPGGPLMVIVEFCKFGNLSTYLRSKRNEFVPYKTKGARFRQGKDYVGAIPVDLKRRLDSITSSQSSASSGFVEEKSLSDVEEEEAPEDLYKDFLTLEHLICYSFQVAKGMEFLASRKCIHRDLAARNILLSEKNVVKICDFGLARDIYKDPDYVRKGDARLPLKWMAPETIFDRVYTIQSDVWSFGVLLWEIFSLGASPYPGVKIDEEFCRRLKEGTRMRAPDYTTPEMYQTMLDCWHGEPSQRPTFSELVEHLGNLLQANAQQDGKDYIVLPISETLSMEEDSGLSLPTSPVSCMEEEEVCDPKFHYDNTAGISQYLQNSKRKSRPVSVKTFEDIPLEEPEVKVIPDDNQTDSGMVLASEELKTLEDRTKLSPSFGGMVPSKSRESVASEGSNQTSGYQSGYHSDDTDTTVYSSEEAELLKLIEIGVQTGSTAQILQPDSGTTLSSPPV

As for `Cc1n[nH]c2c1C(c1ccccc1Br)C(C#N)=C(N)O2` (centres unmarked) [Compound 1, 6-amino-4-(2-bromophenyl)-3-methyl-1,4-dihydropyrano[2,3-c]pyrazole-5-carbonitrile], the results for the half-maximal inhibitory concentration (IC50) (against EGFR; against VEGFR-2; in series [1] (setting [2])) were 140 nM, 11400 nM and 420 nM, respectively. In series [1], the “fold higher activity than erlotinib, HEPG2” value is ~10 fold.
`CCOC=NC1=C(C#N)C(c2ccccc2Br)c2c(C)n[nH]c2O1` (centres unmarked) [Compound 2, Ethyl(E)-N-(4-(2-bromophenyl)-5-cyano-3-methyl-1,4-dihydropyrano[2,3-cpyrazol-6-yl)formimidate]: the melting point is 158 to 160 °C. The IC50 against EGFR amounted to 490 nM. The IC50 against VEGFR-2 worked out at 2120 nM. For the same molecule, the IC50 in series [1] (setting [2]) worked out at 350 nM. Besides, the “fold higher activity than erlotinib, HEPG2” value in series [1] is reported as ~10 fold.
On to `Cc1n[nH]c2c1C(c1ccccc1Br)c1c(ncn(N)c1=N)O2` (centres unmarked) [Compound 3, 4-(2-Bromophenyl)-5-imino-3-methyl-1,4-dihydropyrazolo[4′,3′:5,6]pyrano[2,3-d]pyrimidin-6(5H)-amine], for which the melting point is 120 to 122 °C. This molecule also showed an IC50 against EGFR of 60 nM. Besides, on VEGFR-2, 850 nM corresponded to half-maximal inhibition (IC50). Moreover, the IC50 in series [1] (setting [2]) was 4070 nM.
As for `Cc1nc2c(c(=O)[nH]1)C(c1ccccc1Br)c1c(C)n[nH]c1O2` (centres unmarked) [Compound 4, 4-(2-Bromophenyl)-3,7-dimethyl-4,6-dihydropyrazolo[4′,3′:5,6]pyrano[2,3-d]pyrimidin-5(1H)-one], the melting point is 115 °C. This molecule also had an IC50 on EGFR of 130 nM. In addition, the midpoint of inhibition on VEGFR-2, the IC50, lay at 360 nM. Also, in series [1] (setting [2]), the 50% inhibitory concentration (IC50) was determined as 310 nM. Also, the “fold higher activity than erlotinib, HEPG2” value in series [1] is recorded as ~10 fold.
`Cc1n[nH]c2c1C(c1ccccc1Br)c1c(nc[nH]c1=O)O2` (centres unmarked) [Compound 5, 4-(2-Bromophenyl)-3-methyl-4,6-dihydropyrazolo [4′,3′:5,6]pyrano[2,3-d]pyrimidin-5(1H)-one] registered a melting point of 205 °C. Also, at EGFR, the IC50 is 150 nM. At VEGFR-2, this molecule displayed an IC50 of 1120 nM. The IC50 in series [1] (setting [2]) was determined as 8710 nM.
The like results for `Cc1n[nH]c2c1C(c1ccccc1Br)c1c(N)ncnc1O2` (centres unmarked) [Compound 6, 4-(2-Bromophenyl)-3-methyl-1,4-dihydropyrazolo[4′,3′:5,6]pyrano[2,3-d]pyrimidin-5-amine] were, in that order, 320 °C, 250 nM, 1100 nM and 15700 nM.
Taken in the same sequence, the figures for `Cc1n[nH]c2c1C(c1ccccc1Br)C(C#N)=C(NC(=O)CC#N)O2` (centres unmarked) [Compound 7, N-(4-(2-Bromophenyl)-5-cyano-3-methyl-1,4-dihydropyrano[2,3-c]pyrazol-6-yl)-2-cyanoacetamide] were > 360 °C, 250 nM, 1450 nM and 1840 nM.
As to `Cc1n[nH]c2c1C(c1ccccc1Br)C(C#N)=C(NC(=S)Nc1ccccc1)O2` (centres unmarked) [Compound 8, 1-(4-(2-Bromophenyl)-5-cyano-3-methyl-1,4-dihydropyrano[2,3-c]pyrazol-6-yl)-3-phenylthiourea], the IC50 was determined as 230 nM on EGFR, 460 nM at VEGFR-2 and 380 nM in series [1] (setting [2]).
`Cc1ccc(S(=O)(=O)NC2=C(C#N)C(c3ccccc3Br)c3c(C)n[nH]c3O2)cc1` (centres unmarked) [Compound 9, N-(4-(2-Bromophenyl)-5-cyano-3-methyl-1,4-dihydropyrano[2,3-c]pyrazol-6-yl)-4-methyl-benzenesulfonamide] registered a melting point of 193 to 195 °C. At EGFR, the IC50 is 160 nM. On VEGFR-2, the IC50 turned out to be 220 nM. Moreover, the IC50 in series [1] (setting [2]) came out at 2300 nM.
`CC1=NNC(=O)/C1=C/c1ccccc1Br` [Compound 11, (E)-4-(2-Bromobenzylidene)-5-methyl-2,4-dihydro-3H-pyrazol-3-one]: the melting point turned out to be 210 °C. Also, the concentration for half-maximal inhibition (IC50) against EGFR came out at 300 nM. At VEGFR-2, this molecule registered an IC50 of 270 nM. The IC50 in series [1] (setting [2]) came out at 630 nM. Further, the “fold higher activity than erlotinib, HEPG2” value in series [1] was ~10 fold.
`CC1=NNC2=NC(=O)NC(c3ccccc3Br)C12` (centres unmarked) [Compound 12, 4-(2-bromophenyl)-3-methyl-1,3a, 4,5-tetrahydro-6h-pyrazolo [3,4-d]pyrimidin-6-one] displayed a melting point of 205 °C. Moreover, 90 nM corresponded to half-maximal inhibition at EGFR (IC50). At VEGFR-2, this molecule came in with an IC50 of 230 nM. Further, in series [1] (setting [2]), the 50% inhibitory concentration (IC50) worked out at 710 nM. Further, the “fold higher activity than erlotinib, HEPG2” value in series [1] is reported as ~10 fold.
`CC1=NNC2=NC(=S)NC(c3ccccc3Br)C12` (centres unmarked) [Compound 13, 4-(2-Bromophenyl)-3-methyl-1,3a,4,5-tetrahydro-6H-pyrazolo[3,4-d]pyrimidine-6-thione] returned a melting point of 170 °C. The molecule further displayed an IC50 on EGFR of 120 nM. The molecule further registered an IC50 on VEGFR-2 of 750 nM. Besides, the IC50 in series [1] (setting [2]) is 1810 nM.
Taken in the same sequence, the figures for `CC1=NNC2=NNC(c3ccccc3Br)C12` (centres unmarked) [Compound 14, 4-(2-Bromophenyl)-3-methyl-1,3a,4,5-tetrahydropyrazolo[3,4-c]pyrazole] were 140 °C, 110 nM, 2870 nM and 6640 nM.
Turning to `Cc1n[nH]c2oc(=O)c(C#N)c(-c3ccccc3Br)c12` [Compound 15, 4-(2-Bromophenyl)-3-methyl-6-oxo-1,6-dihydropyrano[2,3-c]pyrazole-5-carbonitrile], the melting point was > 360 °C. This molecule also gave an IC50 on EGFR of 190 nM. This molecule also returned a half-inhibitory concentration (IC50) against VEGFR-2 of 370 nM. For the same molecule, in series [1] (setting [2]), the IC50 came to 370 nM. In addition, in series [1], the “fold higher activity than erlotinib, HEPG2” value is ~10 fold.
As for `C#Cc1cccc(Nc2ncnc3cc(OCCOC)c(OCCOC)cc23)c1` [Erlotinib, erlotinib, reference compound], in series [1] (HepG2, 24 h), the IC50 amounted to 10600 nM.
For the molecule `CNC(=O)c1cc(Oc2ccc(NC(=O)Nc3ccc(Cl)c(C(F)(F)F)c3)cc2)ccn1` [Sorafenib, sorafenib, reference compound], in series [1] (setting [2]), the IC50 was found to be 1060 nM.

The term IC50 denotes the point on the concentration scale where inhibition reaches its midpoint. As usually defined, the melting point is the temperature, or range, at which the solid turns liquid.
